# What was measured:
# Type in all cases: in vivo
# [1] = test system: Scirpus juncoides; assay: Herbicidal effect on paddy field weeds of post-emergence stage (Post), Test Example 2; details: one-leaf stage, 1000 g/ha as active ingredient, examined after 21 days
# In short: (§1)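 Post-emergence paddy test: formulated compound added to 5 cm standing water at 1000 g/ha a.i. when weeds reached one-leaf stage in clay loam pots in greenhouse. Growth inhibition rated 21 days later versus untreated control on a 0 (0%) to 5 (100%) scale.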
# [2] = test system: Echinochloa crus-galli; assay: as above; details: one-leaf stage, 1000 g/ha as active ingredient, examined after 21 days
# In short: as §1
# [3] = test system: Lindernia procumbens; assay: as above; details: one-leaf stage, 1000 g/ha as active ingredient, examined after 21 days
# In short: as §1
# [4] = test system: Scirpus juncoides; assay: Herbicidal efficacy on paddy field weeds of pre-emergence stage (Pre), Test Example 1; details: 1000 g/ha as active ingredient, examined after 21 days
# In short: (§2)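 Pre-emergence paddy test: 1000 g/ha active ingredient, formulated and water-diluted, dropped onto 5 cm floodwater one day after sowing both weeds in clay loam. After 21 days in greenhouse, inhibition relative to untreated control rated on 0 (0%) to 5 (100%) scale.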
# [5] = test system: Lindernia procumbens; assay: as above; details: 1000 g/ha as active ingredient, examined after 21 days
# In short: as §2
smiles,measurement,setting,value
CC1(C)CCN(Cc2ccccc2N(C(=O)Oc2ccccc2)S(=O)(=O)C(F)(F)F)C(=O)O1 [Compound 1-506],Scirpus juncoides post (herbicidal effect),[1],"4 (90%-99% herbicidal effect, phytotoxicity)"
same,Echinochloa crus-galli post (herbicidal effect),[2],"4 (90%-99% herbicidal effect, phytotoxicity)"
same,Lindernia procumbens post (herbicidal effect),[3],"5 (100% herbicidal effect, phytotoxicity)"
same,Scirpus juncoides pre (herbicidal effect),[4],"5 (100% herbicidal effect, phytotoxicity)"
same,Lindernia procumbens pre (herbicidal effect),[5],"5 (100% herbicidal effect, phytotoxicity)"
CCCC1(CC)CCN(Cc2ccccc2NS(=O)(=O)C(F)(F)F)C(=O)O1 (racemic) [Compound 1-494],Scirpus juncoides post (herbicidal effect),[1],"4 (90%-99% herbicidal effect, phytotoxicity)"
same,Echinochloa crus-galli post (herbicidal effect),[2],"4 (90%-99% herbicidal effect, phytotoxicity)"
same,Lindernia procumbens post (herbicidal effect),[3],"5 (100% herbicidal effect, phytotoxicity)"
same,Scirpus juncoides pre (herbicidal effect),[4],"5 (100% herbicidal effect, phytotoxicity)"
same,Lindernia procumbens pre (herbicidal effect),[5],"5 (100% herbicidal effect, phytotoxicity)"
CC(C)COC(=O)N(c1ccccc1CN1CCC2(CCCC2)OC1=O)S(=O)(=O)C(F)(F)F [Compound 1-142],Scirpus juncoides post (herbicidal effect),[1],"4 (90%-99% herbicidal effect, phytotoxicity)"
same,Echinochloa crus-galli post (herbicidal effect),[2],"4 (90%-99% herbicidal effect, phytotoxicity)"
same,Lindernia procumbens post (herbicidal effect),[3],"4 (90%-99% herbicidal effect, phytotoxicity)"
same,Scirpus juncoides pre (herbicidal effect),[4],"4 (90%-99% herbicidal effect, phytotoxicity)"
same,Lindernia procumbens pre (herbicidal effect),[5],"4 (90%-99% herbicidal effect, phytotoxicity)"
CCCOC(=O)N(c1ccccc1CN1CCCCOC1=O)S(=O)(=O)C(F)(F)F [2-4],Scirpus juncoides post (herbicidal effect),[1],"4 (90%-99% herbicidal effect, phytotoxicity)"
same,Echinochloa crus-galli post (herbicidal effect),[2],"4 (90%-99% herbicidal effect, phytotoxicity)"
same,Lindernia procumbens post (herbicidal effect),[3],"4 (90%-99% herbicidal effect, phytotoxicity)"
same,Scirpus juncoides pre (herbicidal effect),[4],"4 (90%-99% herbicidal effect, phytotoxicity)"
same,Lindernia procumbens pre (herbicidal effect),[5],"4 (90%-99% herbicidal effect, phytotoxicity)"
CC(C)COC(=O)N(c1ccccc1CN1CCC(C)(C2CCC2)OC1=O)S(=O)(=O)C(F)(F)F (centres unmarked) [Compound 1-387],Scirpus juncoides post (herbicidal effect),[1],"5 (100% herbicidal effect, phytotoxicity)"
same,Echinochloa crus-galli post (herbicidal effect),[2],"5 (100% herbicidal effect, phytotoxicity)"
same,Lindernia procumbens post (herbicidal effect),[3],"5 (100% herbicidal effect, phytotoxicity)"
same,Scirpus juncoides pre (herbicidal effect),[4],"5 (100% herbicidal effect, phytotoxicity)"
same,Lindernia procumbens pre (herbicidal effect),[5],"5 (100% herbicidal effect, phytotoxicity)"
CCCCOC(=O)N(c1ccccc1CN1CC(C)(C)COC1=O)S(=O)(=O)C(F)(F)F [Compound 1-27],Scirpus juncoides post (herbicidal effect),[1],"4 (90%-99% herbicidal effect, phytotoxicity)"
same,Echinochloa crus-galli post (herbicidal effect),[2],"4 (90%-99% herbicidal effect, phytotoxicity)"
same,Lindernia procumbens post (herbicidal effect),[3],"4 (90%-99% herbicidal effect, phytotoxicity)"
same,Scirpus juncoides pre (herbicidal effect),[4],"4 (90%-99% herbicidal effect, phytotoxicity)"
same,Lindernia procumbens pre (herbicidal effect),[5],"4 (90%-99% herbicidal effect, phytotoxicity)"
CC1(C2(C)CCN(Cc3ccccc3NS(=O)(=O)C(F)(F)F)C(=O)O2)CC1 (centres unmarked) [Compound 1-371],Scirpus juncoides post (herbicidal effect),[1],"4 (90%-99% herbicidal effect, phytotoxicity)"
same,Echinochloa crus-galli post (herbicidal effect),[2],"4 (90%-99% herbicidal effect, phytotoxicity)"
same,Lindernia procumbens post (herbicidal effect),[3],"5 (100% herbicidal effect, phytotoxicity)"
same,Scirpus juncoides pre (herbicidal effect),[4],"5 (100% herbicidal effect, phytotoxicity)"
same,Lindernia procumbens pre (herbicidal effect),[5],"5 (100% herbicidal effect, phytotoxicity)"
CC1(C2CC2)CCN(Cc2ccccc2NS(=O)(=O)C(F)(F)F)C(=O)O1 (centres unmarked) [Compound 1-125],Scirpus juncoides post (herbicidal effect),[1],"4 (90%-99% herbicidal effect, phytotoxicity)"
same,Echinochloa crus-galli post (herbicidal effect),[2],"4 (90%-99% herbicidal effect, phytotoxicity)"
same,Lindernia procumbens post (herbicidal effect),[3],"4 (90%-99% herbicidal effect, phytotoxicity)"
same,Scirpus juncoides pre (herbicidal effect),[4],"4 (90%-99% herbicidal effect, phytotoxicity)"
same,Lindernia procumbens pre (herbicidal effect),[5],"4 (90%-99% herbicidal effect, phytotoxicity)"
O=C1OC2(CCCC2)CCN1Cc1ccccc1NS(=O)(=O)C(F)(F)F [Compound 1-137],Scirpus juncoides post (herbicidal effect),[1],"4 (90%-99% herbicidal effect, phytotoxicity)"
same,Echinochloa crus-galli post (herbicidal effect),[2],"4 (90%-99% herbicidal effect, phytotoxicity)"
same,Lindernia procumbens post (herbicidal effect),[3],"4 (90%-99% herbicidal effect, phytotoxicity)"
same,Scirpus juncoides pre (herbicidal effect),[4],"4 (90%-99% herbicidal effect, phytotoxicity)"
same,Lindernia procumbens pre (herbicidal effect),[5],"4 (90%-99% herbicidal effect, phytotoxicity)"
CC(C)(C)COC(=O)N(c1ccccc1CN1CCC(C)(C)OC1=S)S(=O)(=O)C(F)(F)F [Compound 1-64],Scirpus juncoides post (herbicidal effect),[1],"4 (90%-99% herbicidal effect, phytotoxicity)"
same,Echinochloa crus-galli post (herbicidal effect),[2],"4 (90%-99% herbicidal effect, phytotoxicity)"
same,Lindernia procumbens post (herbicidal effect),[3],"4 (90%-99% herbicidal effect, phytotoxicity)"
same,Scirpus juncoides pre (herbicidal effect),[4],"4 (90%-99% herbicidal effect, phytotoxicity)"
same,Lindernia procumbens pre (herbicidal effect),[5],"4 (90%-99% herbicidal effect, phytotoxicity)"
CCOC(=O)N(c1ccccc1CN1CCC(c2ccccc2)(C(F)(F)F)OC1=O)S(=O)(=O)C(F)(F)F (centres unmarked) [Compound 1-230],Scirpus juncoides post (herbicidal effect),[1],"4 (90%-99% herbicidal effect, phytotoxicity)"
same,Echinochloa crus-galli post (herbicidal effect),[2],"4 (90%-99% herbicidal effect, phytotoxicity)"
same,Lindernia procumbens post (herbicidal effect),[3],"5 (100% herbicidal effect, phytotoxicity)"
same,Scirpus juncoides pre (herbicidal effect),[4],"5 (100% herbicidal effect, phytotoxicity)"
same,Lindernia procumbens pre (herbicidal effect),[5],"5 (100% herbicidal effect, phytotoxicity)"
CC1(C)CCN(Cc2ccccc2NS(=O)(=O)C(F)(F)F)C(=S)O1 [Compound 1-58],Scirpus juncoides post (herbicidal effect),[1],"4 (90%-99% herbicidal effect, phytotoxicity)"
same,Echinochloa crus-galli post (herbicidal effect),[2],"4 (90%-99% herbicidal effect, phytotoxicity)"
same,Lindernia procumbens post (herbicidal effect),[3],"4 (90%-99% herbicidal effect, phytotoxicity)"
same,Scirpus juncoides pre (herbicidal effect),[4],"4 (90%-99% herbicidal effect, phytotoxicity)"
same,Lindernia procumbens pre (herbicidal effect),[5],"4 (90%-99% herbicidal effect, phytotoxicity)"
CCOC(=O)N(c1ccccc1CN1CCC(c2ccccc2C)OC1=O)S(=O)(=O)C(F)(F)F (centres unmarked) [Compound 1-285],Scirpus juncoides post (herbicidal effect),[1],"4 (90%-99% herbicidal effect, phytotoxicity)"
same,Echinochloa crus-galli post (herbicidal effect),[2],"4 (90%-99% herbicidal effect, phytotoxicity)"
same,Lindernia procumbens post (herbicidal effect),[3],"5 (100% herbicidal effect, phytotoxicity)"
same,Scirpus juncoides pre (herbicidal effect),[4],"4 (90%-99% herbicidal effect, phytotoxicity)"
same,Lindernia procumbens pre (herbicidal effect),[5],"5 (100% herbicidal effect, phytotoxicity)"
COCN(c1ccccc1CN1CCC(C)(C)OC1=O)S(=O)(=O)C(F)(F)F [Compound 1-55],Scirpus juncoides post (herbicidal effect),[1],"4 (90%-99% herbicidal effect, phytotoxicity)"
same,Echinochloa crus-galli post (herbicidal effect),[2],"4 (90%-99% herbicidal effect, phytotoxicity)"
same,Lindernia procumbens post (herbicidal effect),[3],"4 (90%-99% herbicidal effect, phytotoxicity)"
same,Scirpus juncoides pre (herbicidal effect),[4],"4 (90%-99% herbicidal effect, phytotoxicity)"
same,Lindernia procumbens pre (herbicidal effect),[5],"4 (90%-99% herbicidal effect, phytotoxicity)"
CCOC(=O)N(c1ccccc1CN1CCC(C)(c2ccccc2C)OC1=O)S(=O)(=O)C(F)(F)F (centres unmarked) [Compound 1-406],Scirpus juncoides post (herbicidal effect),[1],"4 (90%-99% herbicidal effect, phytotoxicity)"
same,Echinochloa crus-galli post (herbicidal effect),[2],"5 (100% herbicidal effect, phytotoxicity)"
same,Lindernia procumbens post (herbicidal effect),[3],"5 (100% herbicidal effect, phytotoxicity)"
same,Scirpus juncoides pre (herbicidal effect),[4],"5 (100% herbicidal effect, phytotoxicity)"
same,Lindernia procumbens pre (herbicidal effect),[5],"5 (100% herbicidal effect, phytotoxicity)"
CC(C)(C)C(=O)OCN(c1ccccc1CN1CCC(C)(C2CC2)OC1=O)S(=O)(=O)C(F)(F)F (centres unmarked) [Compound 1-136],Scirpus juncoides post (herbicidal effect),[1],"4 (90%-99% herbicidal effect, phytotoxicity)"
same,Echinochloa crus-galli post (herbicidal effect),[2],"4 (90%-99% herbicidal effect, phytotoxicity)"
same,Lindernia procumbens post (herbicidal effect),[3],"4 (90%-99% herbicidal effect, phytotoxicity)"
same,Scirpus juncoides pre (herbicidal effect),[4],"4 (90%-99% herbicidal effect, phytotoxicity)"
same,Lindernia procumbens pre (herbicidal effect),[5],"4 (90%-99% herbicidal effect, phytotoxicity)"
CCOC(=O)N(c1ccccc1CN1CC(C)(C)C(c2ccccc2)OC1=O)S(=O)(=O)C(F)(F)F (centres unmarked) [Compound 1-263],Scirpus juncoides post (herbicidal effect),[1],"4 (90%-99% herbicidal effect, phytotoxicity)"
same,Echinochloa crus-galli post (herbicidal effect),[2],"4 (90%-99% herbicidal effect, phytotoxicity)"
same,Lindernia procumbens post (herbicidal effect),[3],"5 (100% herbicidal effect, phytotoxicity)"
same,Scirpus juncoides pre (herbicidal effect),[4],"4 (90%-99% herbicidal effect, phytotoxicity)"
same,Lindernia procumbens pre (herbicidal effect),[5],"5 (100% herbicidal effect, phytotoxicity)"
CCC1(CC)CCN(Cc2ccccc2N(C(=O)OCC(C)(C)C)S(=O)(=O)C(F)(F)F)C(=S)O1 [Compound 1-120],Scirpus juncoides post (herbicidal effect),[1],"4 (90%-99% herbicidal effect, phytotoxicity)"
same,Echinochloa crus-galli post (herbicidal effect),[2],"4 (90%-99% herbicidal effect, phytotoxicity)"
same,Lindernia procumbens post (herbicidal effect),[3],"4 (90%-99% herbicidal effect, phytotoxicity)"
same,Scirpus juncoides pre (herbicidal effect),[4],"4 (90%-99% herbicidal effect, phytotoxicity)"
same,Lindernia procumbens pre (herbicidal effect),[5],"4 (90%-99% herbicidal effect, phytotoxicity)"
CCOC(=O)N(c1ccccc1CN1CCC(c2ccccc2C(F)(F)F)OC1=O)S(=O)(=O)C(F)(F)F (centres unmarked) [Compound 1-296],Scirpus juncoides post (herbicidal effect),[1],"4 (90%-99% herbicidal effect, phytotoxicity)"
same,Echinochloa crus-galli post (herbicidal effect),[2],"4 (90%-99% herbicidal effect, phytotoxicity)"
same,Lindernia procumbens post (herbicidal effect),[3],"5 (100% herbicidal effect, phytotoxicity)"
same,Scirpus juncoides pre (herbicidal effect),[4],"4 (90%-99% herbicidal effect, phytotoxicity)"
same,Lindernia procumbens pre (herbicidal effect),[5],"5 (100% herbicidal effect, phytotoxicity)"

# From patent US8048825B2, “Haloalkylsulfonanilide derivatives or salt thereof, herbicide comprising the derivatives as active ingredient, and use of the herbicide” (Nihon Nohyaku Co., Ltd., priority 2006, dated 2011)
